# Reference: patent US11413278B2, “Compounds and methods for promoting stress resistance” (priority 2015, dated 2022)
# Read-outs that look alike come from different tables or passages of the source.
# Legend:
# WI-38 cells [1] = assay: MMS resistance assay; type: cell-based, human; settings: for fold induction at 10 µM: Homo sapiens, 12 h, normalized ATP measurement
# Procedure, shortened: (§1)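 Resistance to CdCl2 or MMS stress (12 h exposure) was scored in WI-38 fibroblasts pretreated with compound at 0.25–20 μM final, five doses, technical triplicates. MMS plates had compound added 24 h before MMS, after a shift to serum-free DMEM+2% BSA. Significance came from a global variance t-test over two independent runs.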
# human PARP1 = target: T1, human PARP1 (Homo sapiens, UniProt P09874); assay: PARP inhibitor assay (HT Fluorescent Homogeneous PARP Inhibition Assay Kit); type: biochemical; settings: score
# T1 construct: purchased Trevigen
# Procedure, shortened: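 Compounds (10 μM final) incubated 30 min, room temperature, dark, with human PARP1, nicotinamide adenine dinucleotide and activated DNA. Fluorescent signal generated by 1 hr cycling with diaphorase and resazurin, then reaction stopped.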
# WI-38 cells [2] = assay: CdCl2 (cadmium) resistance assay; type: cell-based, human; settings: for fold induction at 10 µM: Homo sapiens, 12 h, normalized ATP measurement
# Procedure, shortened: as §1
# [3] = tested on: phosphorylated γH2A.X and TP53BP1; assay: DNA damage marker analysis (immuno-staining); settings: for activity at 10 µM: Homo sapiens, WI-38, 24 h; for P = Potential DNA-damaging / R = Potential DNA damaging: human, 24 h
# Procedure, shortened: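 Immunofluorescence read-out for phospho-γH2A.X (Ser-139) and phospho-TP53BP1 (Ser-1778), with DAPI nuclear stain and automated imaging at 10×. WI-38 cells (~8,000 per well) were exposed to small molecules for 24 h after 24 h of culture, with doxorubicin (300 nM, 24 h) or H2O2 (700 μM, 3 h) as positive damage controls.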
# C. elegans = C. elegans lifespan assays (liquid and plate); type: in vivo, Caenorhabditis elegans; settings: for ILS at 60 µM / ILS at 66 µM: Caenorhabditis elegans; for Extension of C. elegans' lifespan (qualitative): in at least 3 to 4 trials, group range ~10% to ~50%; for O = Life span- extending scores in worms: score scale 0 to 2, 4 to 6 independent trials; for M = Lifespan-extending scores in worms: summary score
# [4] = Exp. 1, WI-38 cells, read-out: Exp. 1, under MMS stress treatment, at 10 uM (fold change)
# [5] = Exp. 2, WI-38 cells, read-out: Exp. 2, under MMS stress treatment, at 10 uM (fold change)
# [6] = score in summary of 38 core set hits
# [7] = Exp. 1, WI-38 cells, read-out: Exp. 1, under Cd2Cl2 stress treatment, at 10 uM (fold change)
# [8] = Exp. 2, WI-38 cells, read-out: Exp. 2, under Cd2Cl2 stress treatment, at 10 uM (fold change)
# [9] = read-out: Experiment 1, H2A.X-P DNA damage foci staining (no H2O2 stress treatment), at 10 uM
# [10] = read-out: Experiment 2, H2A.X-P DNA damage foci staining (no H2O2 stress treatment), at 10 uM
# [11] = read-out: Experiment 2, H2A.X-P DNA damage foci staining (under H2O2 stress treatment), at 10 uM
# [12] = read-out: Experiment 2, TP53BP1-P DNA damage foci staining (no H2O2 stress treatment), at 10 uM
# [13] = read-out: Experiment 2, TP53BP1-P DNA damage foci staining (under H2O2 stress treatment), at 10 uM
# [14] = 60 μM, in liquid, wild type, with FuDR, 1.0 × 10^9 bacteria/ml, read-out: relative change of mean lifespan vs control, Trial 1
# [15] = 60 μM, in liquid, wild type, with FuDR, 2.5 × 10^9 bacteria/ml, read-out: relative change of mean lifespan vs control, Trial 2
# [16] = 60 μM, on plate, CF512 temperature-sensitive sterile animals, without FuDR, 2.0 × 10^10 bacteria/ml, read-out: relative change of mean lifespan vs control, Trial 3
# [17] = Assay 2(z), 1.0 × 10^9 bacteria/ml, wild type + FuDR (2012 July), read-out: Lifespan assay in liquid
# [18] = Assay 3(aa), 2.5 × 10^9 bacteria/ml, wild type + FuDR, read-out: Lifespan assay in liquid
# [19] = Assay 4(ab), 2.0 × 10^10 bacteria/ml, CF512 worms, no FuDR, read-out: Lifespan assay on plates
# T1 sequence (P09874 whole entry): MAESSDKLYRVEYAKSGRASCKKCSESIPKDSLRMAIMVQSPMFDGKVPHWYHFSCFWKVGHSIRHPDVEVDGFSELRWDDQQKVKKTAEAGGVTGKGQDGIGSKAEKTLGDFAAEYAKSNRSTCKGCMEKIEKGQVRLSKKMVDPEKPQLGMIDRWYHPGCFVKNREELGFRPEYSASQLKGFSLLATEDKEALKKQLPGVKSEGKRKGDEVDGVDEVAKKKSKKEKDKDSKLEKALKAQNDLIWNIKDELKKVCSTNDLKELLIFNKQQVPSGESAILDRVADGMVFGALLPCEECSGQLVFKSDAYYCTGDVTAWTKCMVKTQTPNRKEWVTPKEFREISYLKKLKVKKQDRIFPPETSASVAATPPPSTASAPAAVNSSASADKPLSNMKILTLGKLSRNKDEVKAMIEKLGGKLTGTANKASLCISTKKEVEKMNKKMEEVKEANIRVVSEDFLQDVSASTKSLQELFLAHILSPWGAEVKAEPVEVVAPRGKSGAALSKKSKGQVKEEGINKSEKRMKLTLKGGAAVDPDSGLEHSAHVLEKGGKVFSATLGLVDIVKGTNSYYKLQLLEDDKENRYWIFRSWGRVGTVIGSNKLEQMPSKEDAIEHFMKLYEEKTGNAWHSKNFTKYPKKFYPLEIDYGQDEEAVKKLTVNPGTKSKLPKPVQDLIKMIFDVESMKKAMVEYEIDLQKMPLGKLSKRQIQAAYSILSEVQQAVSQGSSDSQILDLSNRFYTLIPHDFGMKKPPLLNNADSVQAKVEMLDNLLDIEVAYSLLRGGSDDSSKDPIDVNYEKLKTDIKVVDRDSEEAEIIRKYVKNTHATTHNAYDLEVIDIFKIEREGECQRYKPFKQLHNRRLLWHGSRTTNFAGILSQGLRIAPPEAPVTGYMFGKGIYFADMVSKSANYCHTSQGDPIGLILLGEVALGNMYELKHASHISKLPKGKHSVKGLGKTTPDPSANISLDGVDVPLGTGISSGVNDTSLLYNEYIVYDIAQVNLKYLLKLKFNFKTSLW
structure (smiles),measurement,setting,value
O=C(/C(=C/c1ccc(Cl)cc1)c1nc2ccccc2[nH]1)c1ccccc1 [Gr-4D],fold induction at 10 µM,WI-38 cells [1]; [4],1.72
same,fold induction at 10 µM,WI-38 cells [1]; [5],1.33
same,Assay 3: MMS-resistant,"WI-38 cells [1]; YES/NO, * indicates partial",YES
same,Assay 5: Triple resistant,"WI-38 cells [1]; YES/NO, H2O2, cadmium and MMS",YES
same,B = MMS resistant,WI-38 cells [1]; [6],0
same,B = MMS resistant,WI-38 cells [1]; summary score,1
same,D = Triple resistant,WI-38 cells [1]; summary score,2
same,L = PARP inhibition,human PARP1,0
same,CdCl2-resistant,WI-38 cells [2],YES
same,H2O2- & CdCl2-resistant,WI-38 cells [2],YES
same,fold induction at 10 µM,WI-38 cells [2]; [7],2.1
same,fold induction at 10 µM,WI-38 cells [2]; [8],2.88
same,CdCl2-resistant,"WI-38 cells [2]; WI-38 cells, 10 μM",YES
same,H2O2- & CdCl2-resistant,"WI-38 cells [2]; WI-38 cells, 10 μM, both stressors",YES
same,Assay 4: H2O2- & Cd-resistant,WI-38 cells [2]; YES/NO,YES
same,Assay 2: Cadmium-resistant,"WI-38 cells [2]; YES/NO, * indicates partial",YES
same,A = Cadmium resistant,WI-38 cells [2]; [6],1
same,A = Cadmium resistant,WI-38 cells [2]; summary score,1
same,C = H2O2- & Cd-resistant,WI-38 cells [2]; summary score,1
same,activity at 10 µM,[3]; [9],103%
same,activity at 10 µM,[3]; [10],49.6%
same,activity at 10 µM,[3]; [11],123%
same,activity at 10 µM,[3]; [12],136%
same,activity at 10 µM,[3]; [13],388%
same,P = Potential DNA-damaging,[3],0
same,R = Potential DNA damaging,[3],0
same,"relative change of mean lifespan vs control, Trial 6 (confirmative)","C. elegans; 60 μM, on plate, temperature-sensitive sterile animals, without FuDR, 1.0 × 10^11 bacteria/ml",+11.1%
same,"relative change of mean lifespan vs control, Trial 5 (confirmative)","C. elegans; 60 μM, on plate, temperature-sensitive sterile animals, without FuDR, 2.0 × 10^10 bacteria/ml",+39.4%
same,"Lifespan, average increase",C. elegans; 4 or more trials,24.0%
same,ILS at 60 µM,C. elegans; [14],50.8%
same,ILS at 60 µM,C. elegans; [15],9%
same,ILS at 60 µM,"C. elegans; 60 μM, on plate, CF512 temperature-sensitive sterile animals, without FuDR, 1.0 × 10^11 bacteria/ml, read-out: relative change of mean lifespan vs control, Trial 4",11.3%
same,ILS at 60 µM,C. elegans; [16],22.2%
same,ILS at 66 µM,C. elegans; [17],50.8%
same,ILS at 66 µM,C. elegans; [18],9%
same,ILS at 66 µM,C. elegans; [19],22.2%
same,ILS at 66 µM,"C. elegans; Assay 5(ac), 1.0 × 10^11 bacteria/ml, CF512 worms, no FuDR, read-out: Lifespan assay on plates",11.3%
same,ILS at 66 µM,"C. elegans; Assay 6(ad), 2.0 × 10^10 bacteria/ml, CF512 worms, no FuDR, read-out: Lifespan assay on plates",39.4%
same,ILS at 66 µM,"C. elegans; Assay 7(ae), 1.0 × 10^11 bacteria/ml, CF512 worms, no FuDR, read-out: Lifespan assay on plates",11.1%
same,Lifespan extension of C. elegans,C. elegans; across independent trials,≤ 50%
same,Extension of C. elegans' lifespan (qualitative),C. elegans,could extend animal's lifespan
same,Trials with lifespan extension,C. elegans; positive of total trials,4 of 4
same,O = Life span- extending scores in worms,C. elegans,2 (2 for observed in more than 2 trials)
same,M = Lifespan-extending scores in worms,C. elegans,2 (2 for observed in more than 2 trials)
same,"Lifespan, mean (FIG. 6B)","C. elegans; temperature-sensitive sterile rollers, on plate, without FuDR, 25° C. then ~22° C., control 18.4±0.4",22.5±0.4
same,Lifespan increase (FIG. 6A),"C. elegans; wild-type, in liquid, with FuDR, 20° C., ~60 μM",~51.2%
same,"Lifespan, mean±SD (FIG. 6A)","C. elegans; wild-type, in liquid, with FuDR, 20° C., ~60 μM, control 21.1±0.5",31.9±1.1
Cc1ccc(S(=O)(=O)Nc2cccc3cccnc23)cc1 [Gr-3B],fold induction at 10 µM,WI-38 cells [1]; [4],1.72
same,fold induction at 10 µM,WI-38 cells [1]; [5],1.33
same,B = MMS resistant,WI-38 cells [1]; [6],0
same,B = MMS resistant,WI-38 cells [1]; summary score,0
same,D = Triple resistant,WI-38 cells [1]; summary score,0
same,L = PARP inhibition,human PARP1,0
same,fold induction at 10 µM,WI-38 cells [2]; [7],2.1
same,fold induction at 10 µM,WI-38 cells [2]; [8],2.88
same,A = Cadmium resistant,WI-38 cells [2]; [6],0
same,A = Cadmium resistant,WI-38 cells [2]; summary score,0
same,C = H2O2- & Cd-resistant,WI-38 cells [2]; summary score,0
same,activity at 10 µM,[3]; [9],81.9%
same,activity at 10 µM,[3]; [10],228%
same,activity at 10 µM,[3]; [11],130%
same,activity at 10 µM,[3]; [12],244%
same,activity at 10 µM,[3]; [13],66.3%
same,P = Potential DNA-damaging,[3],0
same,R = Potential DNA damaging,[3],0
same,ILS at 60 µM,C. elegans; [14],13.7%
same,ILS at 60 µM,C. elegans; [15],12.5%
same,ILS at 60 µM,C. elegans; [16],8.1%
same,ILS at 66 µM,C. elegans; [17],13.7%
same,ILS at 66 µM,C. elegans; [18],12.5%
same,ILS at 66 µM,C. elegans; [19],8.1%
same,Extension of C. elegans' lifespan (qualitative),C. elegans,could extend animal's lifespan
same,O = Life span- extending scores in worms,C. elegans,2 (2 for observed in more than 2 trials)
same,M = Lifespan-extending scores in worms,C. elegans,2 (2 for observed in more than 2 trials)
